Laboratory results from patent US20240174669A1, “CRYSTALLINE FORMS OF A PARP1 INHIBITOR” (XinThera, Inc., priority 2022, published 2024).
≈ marks a conversion by molar mass, not a printed value.

Tests used:
Assay type in all cases: physicochemical
[1] = Purity of filtrates / degradation in bio-relevant media (FeSSIF); conditions: for impurity RRT 1.09 / impurity RRT 1.74 / impurity RRT 1.91 / impurity RRT 1.95 / HPLC Purity API, Sample 1 / HPLC Purity API, Sample 2: FeSSIF filtrate, 220 nm; for impurity RRT 1.09 / impurity RRT 1.74 / impurity RRT 1.91 / impurity RRT 1.95 / HPLC Purity API, Sample 1: Sample 1; for Filtrate Purity 220 nm-24 h: 37° C., starting purity 99.26%
Method: About 15 mg of freebase Form II was weighed into sample vials, and then 3 mL of each media was added to make suspensions, respectively. At 0.5, 2 and 24 hours, about 1 mL of each suspension was filtered, the filtrate was analyzed by HPLC and pH, and the filter cake was analyzed by XRPD. Duplicated samples were prepared for each media.
Compared to control pH buffers, the solubility increased to ˜20 μg/mL in FaSSIF and ˜100 μg/mL in FeSSIF, possibly due to the solubilization effect of bile salt. […] Compared to FaSSIF, concentration of bile salt is 5-fold in FeSSIF. The degradation issue in FeSSIF was confirmed with another two batches (Lot #3 and Lot #2) of freebase Form II at 0.5-8 hours, as summarized in Table 12 and Table 13. Several impurities increased rapidly with time.
HPLC analysis was performed with an Agilent HPLC 1260 series instrument.

[2] = Solubility in 0.5% MC and 0.5% MC pH 3 citrate buffer; conditions: for solubility: thermodynamic from solid
Method: Solubility of freebase Form II was first measured in 0.5% MC (400 cPs) and 0.5% MC (400 cPs) pH 3 citrate buffer. About 5 mg of Form II (Lot#1) was stirred in 1 mL of media at RT for ˜2 hours. The suspension was filtered, with filtrates analyzed by HPLC and remaining solids tested by XRPD. […] Therefore, 0.5% MC pH 3 buffer was selected for suspension formulation stability study.

[3] = Suspension formulation stability in 0.5% MC pH 3 buffer
Method: About 9 mg of free base Form II (Lot#1) was added into 0.3 mL of 0.5% MC pH 3 buffer, and stirred at RT for 30 min to make a suspension with 30 mg/mL drug loading (Day 0 sample). The suspension samples in vials, prepared at the same time, were kept at RT for 3 or 7 days. At each time point, the whole suspension in a vial was dissolved in 8.7 mL water/ACN (1:1, v/v) and then was analyzed by HPLC. Sedimentation of suspension was checked by visual observation, and the solids in another vial were tested by PLM and XRPD.

[4] = DVS moisture sorption (hygroscopicity)
Method: Moisture sorption/desorption data were collected on a DVS instrument. About 75 mg of a sample was placed into a tared sample chamber and automatically weighed. The anhydrate was analyzed with the setting parameters in the table below.

[5] = 0.5% MC pH 3 buffer (100 mM citrate), RT, ~2 hours
[6] = 0.5% MC pH 3 citrate buffer, up to 7 days

Compound: CNC(=O)c1ccc(N2CCN(Cc3cnc4cc(C5CC5)c(=O)[nH]c4c3)CC2)cn1 [Freebase Form II, 5-(4-((7-cyclopropyl-6-oxo-5,6-dihydro-1,5-naphthyridin-3-yl)methyl)piperazin-1-yl)-N-methylpicolinamide]
- impurity RRT 1.09 ([1]; 2 hr, listed as Lot# 2): 1.18 area %
- impurity RRT 1.74 ([1]; 2 hr, listed as Lot# 2): 1.52 area %
- impurity RRT 1.91 ([1]; 2 hr, listed as Lot# 2): 5.63 area %
- impurity RRT 1.95 ([1]; 2 hr, listed as Lot# 2): 0.89 area %
- HPLC Purity API, Sample 1 ([1]; 2 hr, listed as Lot# 3): 91.52 area %
- impurity RRT 1.09 ([1]; 2 hr, listed as Lot# 3): 0.22 area %
- impurity RRT 1.74 ([1]; 2 hr, listed as Lot# 3): 0.35 area %
- impurity RRT 1.91 ([1]; 2 hr, listed as Lot# 3): 1.09 area %
- impurity RRT 1.95 ([1]; 2 hr, listed as Lot# 3): 0.39 area %
- HPLC Purity API, Sample 2 ([1]; 2 hr, listed as Lot# 2): 77.22 area %
- HPLC Purity API, Sample 2 ([1]; 2 hr, listed as Lot# 3): 90.33 area %
- HPLC Purity API, Sample 1 ([1]; 4 hr, listed as Lot# 2): 65.06 area %
- impurity RRT 1.09 ([1]; 4 hr, listed as Lot# 2): 3.56 area %
- impurity RRT 1.74 ([1]; 4 hr, listed as Lot# 2): 2.64 area %
- impurity RRT 1.91 ([1]; 4 hr, listed as Lot# 2): 9.12 area %
- impurity RRT 1.95 ([1]; 4 hr, listed as Lot# 2): 1.67 area %
- HPLC Purity API, Sample 1 ([1]; 4 hr, listed as Lot# 3): 84.44 area %
- impurity RRT 1.09 ([1]; 4 hr, listed as Lot# 3): 1.00 area %
- impurity RRT 1.74 ([1]; 4 hr, listed as Lot# 3): 0.82 area %
- impurity RRT 1.91 ([1]; 4 hr, listed as Lot# 3): 3.55 area %
- impurity RRT 1.95 ([1]; 4 hr, listed as Lot# 3): 0.69 area %
- HPLC Purity API, Sample 2 ([1]; 4 hr, listed as Lot# 2): 60.63 area %
- HPLC Purity API, Sample 2 ([1]; 4 hr, listed as Lot# 3): 77.77 area %
- HPLC Purity API, Sample 1 ([1]; 8 hr, listed as Lot# 2): 50.99 area %
- impurity RRT 1.09 ([1]; 8 hr, listed as Lot# 2): 6.24 area %
- impurity RRT 1.74 ([1]; 8 hr, listed as Lot# 2): 5.16 area %
- impurity RRT 1.91 ([1]; 8 hr, listed as Lot# 2): 8.77 area %
- impurity RRT 1.95 ([1]; 8 hr, listed as Lot# 2): 3.62 area %
- HPLC Purity API, Sample 1 ([1]; 8 hr, listed as Lot# 3): 66.91 area %
- impurity RRT 1.09 ([1]; 8 hr, listed as Lot# 3): 4.10 area %
- impurity RRT 1.74 ([1]; 8 hr, listed as Lot# 3): 2.41 area %
- impurity RRT 1.91 ([1]; 8 hr, listed as Lot# 3): 7.91 area %
- impurity RRT 1.95 ([1]; 8 hr, listed as Lot# 3): 1.57 area %
- HPLC Purity API, Sample 2 ([1]; 8 hr, listed as Lot# 2): 47.77 area %
- HPLC Purity API, Sample 2 ([1]; 8 hr, listed as Lot# 3): 57.55 area %
- Filtrate Purity 220 nm-24 h ([1]; FeSSIF): 55%
- Filtrate Purity 220 nm-24 h ([1]; SGF): 99.28%
- solubility ([2]; 0.5% MC (400 cPs) pH 3 citrate buffer, pH 3, aqueous with cosolvent or surfactant or cyclodextrin, 0.5% MC pH 3 buffer (100 mM citrate), initial pH 3.0, RT, ~2 hours): 4500 µg/mL (≈ 10800 µM)
- solubility ([2]; 0.5% MC (400 cPs), aqueous with cosolvent or surfactant or cyclodextrin, 0.5% MC, RT, ~2 hours): < 10 µg/mL
- solubility ([2]; 0.5% MC (400 cPs), aqueous with cosolvent or surfactant or cyclodextrin, RT, ~2 hours): 6 µg/mL (≈ 14.3 µM)
- Filtrate Purity 254 nm [2, 5]: 99.25%
- XRPD of remaining solids [2, 5]: Unchanged
- form change (XRPD) ([2]; both media: 0.5% MC and 0.5% MC pH 3 citrate buffer): No form change was observed
- crystalline form in suspension [3, 6]: remained unchanged
- purity change in suspension [3, 6]: no purity decrease was observed
- Purity (area %, 220 nm) Initial ([3]; initial, before suspension): 99.25 area %
- sedimentation of suspension (visual observation) ([3]; kept at RT for 3 or 7 days, homogeneous again after swirling 1 min): Sedimentation was observed
- Purity (area %, 220 nm) Day 0 ([3]; suspension in 0.5% MC pH 3 buffer (100 mM citrate), 30 mg/mL, RT, Day 0): 99.30 area %
- Purity (area %, 220 nm) Day 3 ([3]; suspension in 0.5% MC pH 3 buffer (100 mM citrate), 30 mg/mL, RT, Day 3): 99.28 area %
- Purity (area %, 220 nm) Day 7 ([3]; suspension in 0.5% MC pH 3 buffer (100 mM citrate), 30 mg/mL, RT, Day 7): 99.26 area %
- crystalline form after DVS test [4]: remained unchanged
- hygroscopicity (DVS) [4]: non-hygroscopic
- water uptake (DVS) ([4]; at 80% RH, 25° C.): 0.19%
